Data: patent US20190070229A1, “Composition comprising a lactic acid bacteria for preventing and treating vaginosis and the use thereof” (HAUDONGCHUN CO., LTD, priority 2016, published 2019)

How the values were obtained:
Settings in all cases: MRS medium, 37° C.; A50, K50, S50 50, C34 34, T15 15, G20 20, R25 25 microgram/ml
[1] = test system: BLC (Lactobacillus casei); assay: Antibiotic susceptibility of lactic acid bacteria strains; assay type: cell-based; note: key: +++: being normally grown without the effect of antibiotic; −: being not grown caused by the effect of antibiotic
Description: (§1) In order to determine the antibiotic resistance of the lactic acid bacteria strains reproducing abundant lactic acids, i.e., Lactobacillus acidophilus (KCTC No. 3164), Bifidobacterium longum sub sp. longum (KCTC No. 3128) etc, the bacteria was inoculated into MRS medium (10 g of Protease peptone, 10 g of beef extract, 5 g of yeast extract, 20 g of D-glucose, 1 ml of Tween 80, 2 g of K2HPO4, 5 g of sodium acetate, 2 g of diammonium hydrogencitrate, 0.2 g of MgSO47H20, 0.2 g of MnSO4H20, 1 L of distilled water, pH 6.2-6.5) and performed to shaking incubation at 37° C. at the speed of 150 rpm.

[2] = test system: BLD (Lactobacillus delbrueckii subsp. bulgaricus); assay: as above; assay type: cell-based; note: key: +++: being normally grown without the effect of antibiotic; −: being not grown caused by the effect of antibiotic
Description: as §1

[3] = test system: BLA (Lactobacillus acidophilus); assay: as above; assay type: cell-based; note: key: +++: being normally grown without the effect of antibiotic; −: being not grown caused by the effect of antibiotic
Description: as §1

BSS (Streptococcus sp) = assay: as above; assay type: cell-based; note: key: +++: being normally grown without the effect of antibiotic; −: being not grown caused by the effect of antibiotic
Description: as §1

[4] = test system: BLB (Lactobacillus brevis); assay: as above; assay type: cell-based
Description: as §1

[5] = test system: BBL (Bifidobacterium longum subsp. Longum); assay: as above; assay type: cell-based
Description: as §1

[6] = test system: BBB2 (Bifidobacterium breve); set-up: key to the marks not given beside the values
[7] = test system: BBB1 (Bifidobacterium bifidum); set-up: key to the marks not given beside the values
BBC (Bacillus cereus) = assay: Antibiotic susceptibility of lactic acid bacteria strains; assay type: cell-based
Description: as §1

[8] = test system: BBA (Bifidobacterium adolescentis); assay: as above; assay type: cell-based
Description: as §1

[9] = test system: BBC2 (Bifidobacterium catenulatum); assay: as above; assay type: cell-based
Description: as §1

| Compound | Antibiotic susceptibility (growth of BLC with antibiotic) [1] | Antibiotic susceptibility (growth of BLD with antibiotic) [2] | Antibiotic susceptibility (growth of BLA with antibiotic) [3] | Antibiotic susceptibility (growth of BSS with antibiotic) (BSS (Streptococcus sp)) | Antibiotic susceptibility (growth of BLB with antibiotic) [4] | Antibiotic susceptibility (growth of BBL with antibiotic) [5] | Antibiotic susceptibility (growth of BBB2 with antibiotic) [6] | Antibiotic susceptibility (growth of BBB1 with antibiotic) [7] | Antibiotic susceptibility (growth of BBC with antibiotic) (BBC (Bacillus cereus)) | Antibiotic susceptibility (growth of BBA with antibiotic) [8] | Antibiotic susceptibility (growth of BBC2 with antibiotic) [9] |
| --- | --- | --- | --- | --- | --- | --- | --- | --- | --- | --- | --- |
| NC[C@H]1O[C@H](O[C@H]2[C@H](O)[C@@H](O[C@H]3O[C@H](CO)[C@@H](O)[C@H](N)[C@H]3O)[C@H](N)C[C@@H]2N)[C@H](O)[C@@H](O)[C@@H]1O [Kanamycin, kanamycin] | +++ | +++ | +++ | +++ | +++ | +++ | +++ | +++ |  |  |  |
| O=C(N[C@H](CO)[C@H](O)c1ccc([N+](=O)[O-])cc1)C(Cl)Cl [Chloramphenicol, chloramphenicol] | − | − | − | − | − | − |  |  | − | − | − |
| gentamycin | − | − | − |  | − | +++ |  |  | +++ | +++ | +++ |
| [H]/N=C(/N)N[C@H]1[C@H](O)[C@@H](O)[C@H](O[C@@H]2O[C@@H](C)[C@](O)(C=O)[C@H]2O[C@@H]2O[C@@H](CO)[C@H](O)[C@@H](O)[C@@H]2NC)[C@@H](N/C(N)=N\[H])[C@@H]1O [Streptomycin] | − | − | − |  | − | +++ | +++ |  |  |  |  |
| CC1(C)S[C@@H]2[C@H](NC(=O)[C@H](N)c3ccccc3)C(=O)N2[C@H]1C(=O)O [Ampicillin, ampicillin] | − | − |  | − | − | − |  |  | − | − | − |
| CN(C)[C@@H]1C(=O)C(C(N)=O)=C(O)[C@@]2(O)C(=O)C3=C(O)c4c(O)cccc4[C@@](C)(O)[C@H]3C[C@@H]12 [Tetracyclin, tetracycline] | − | − | − | − | − | − |  |  | − | − | − |
| CO[C@H]1/C=C/O[C@@]2(C)Oc3c(C)c(O)c4c(O)c(c(/C=N/N5CCN(C)CC5)c(O)c4c3C2=O)NC(=O)/C(C)=C\C=C\[C@H](C)[C@H](O)[C@@H](C)[C@@H](O)[C@@H](C)[C@H](OC(C)=O)[C@@H]1C [Ripampicin, rifampicin] | − | − | − | − | − | − |  |  | − | − | − |
